Data from patent publication US9955689B2, “Method for promoting plant growth” (SUMITOMO CHEMICAL COMPANY, LIMITED, priority 2012, dated 2018).

These compounds were tested on Nicotiana benthamiana (assay: Test Example 5: growth promotion under low-temperature stress by hydroponics of Nicotiana benthamiana (1 ppm)). Details: compound at 1 ppm, 7 days at 1.5±1.0° C. low-temperature stress, then 3 days at 22° C., 5 or greater = growth promotion effect, read-out: value of a relative leaf area (Equation (1), area of green leaf).
Assay type: in vivo
Protocol: Test Example 5. Test for Evaluating Growth Promotion Under Low-Temperature Stress by Hydroponics of Nicotiana benthamiana
(§1) (Cultivation and Compound Treatment)
(§2) A DMSO solution, which contained one of the compounds 9, 10, 15, 16, 27 to 29, 31 to 37, 40, 44, 47, 48, 52, 55, 56, 58, 61, 63, 81, 87, 89, 92, 95, 98, 100, 102, 105, 108, 109, 111, 113, and 115 of the present invention at a concentration of 1,000 ppm, was prepared. The DMSO solution of the compound of the present invention was added at a volume ratio of 1/1,000 to the Murashige-Scoog medium of a ½-fold concentration (a medium containing 2.3 g of mixed salts (manufactured by Wako Pure Chemical Industries, Ltd.), 200 mg of Myo-inositol (manufactured by Sigme-Aldrich Co. LLC.), 2 mg of niconitic acid (manufactured by Wako Pure Chemical. Industries, Ltd.), 2 mg of pyridoxine hydrochloride (manufactured by Wako Pure Chemical Industries, Ltd.), 20 mg of thiamine hydrochloride (manufactured by Wako Pure Chemical Industries, Ltd.), 20 g of sucrose (manufactured by Wako Pure Chemical Industries, Ltd.), and 1 g of MES (manufactured by DOJINDO LABORATORIES) respectively per 1 L of water and having pH adjusted to 5.8), thereby preparing a medium containing the compound of the present invention at a concentration of 1 ppm.
(§3) Seeds of Nicotiana benthamiana were seeded in the 5 μL of the medium and cultured overnight at 22° C. Thereafter, 45 μL of the medium containing the compound of the present invention at a concentration of 1 ppm was added thereto, and the seeds are cultured for 7 days at 22° C. under the conditions of an illuminance of 4,000 lux, and a day length of 16 hours, and the seedlings raised from the Nicotiana benthamiana were treated with the compound. Moreover, instead of the above medium a test plot, which was obtained by performing the same treatment by using a medium prepared by adding DMSO to the Murashige⋅Scoog medium of ½-fold concentration at a volume ratio of 1/1,000, was used as a control plot not treated with the compound.
(§4) (Low-Temperature Stress Treatment)
(§5) The seedlings of the Nicotiana benthamiana treated with the compound were subjected to low-temperature treatment by being cultured for 7 days at 1.5±1.0° C., under the conditions of an illuminance of 2,000 lux, and a day length of 16 hours.
(§6) The seedlings of the Nicotiana benthamiana having undergone the low-temperature stress treatment were cultured for 3 days at 22° C. under the conditions of an illuminance of 4,000 lux, and a day length of 16 hours. Thereafter, the area of green leaf was quantified by Scanalyzer HTS (manufactured by LemnaTec GmbH). Moreover, the value of the control plot not treated with the compound that had not yet been subjected to the low-temperature stress treatment was measured in the same manner. A value of a relative leaf area was calculated based on the following equation (1), and if the relative value of leaf area was 5 or greater, the compound was evaluated to have a growth promotion effect. As a result of the evaluation, it was confirmed that when the plant was treated with one of the compounds 9, 10, 15, 16, 27 to 29, 31 to 37, 40, 44, 47, 48, 52, 55, 56, 58, 61, 63, 81, 87, 89, 92, 95, 98, 100, 102, 105, 108, 109, 111, 113, and 115 of the present invention at 1 ppm, the value of a relative leaf area was 5 or greater, compared to the area of green leaf of the control plot not treated with compound. Accordingly, it was confirmed that the treatment using the compound of the present invention improve a growth promotion effect. Relative leaf area=100*(a green area of a plot treated with the compound of the present invention minus(−) a green area of a plot not treated with the compound of the present invention)/(a green area of a control plot not treated with the compound of the present invention that had not yet been subjected to low-temperature stress treatment minus(−) a green area of a control plot not treated with the compound of the present invention) Equation (1): […]

Row | Compound | relative leaf area at 1 ppm
1 | Nc1c(C(=O)O)sc2ccc(C(F)(F)F)cc12 [Present compound 108, 3-amino-5-trifluoromethylbenzo[b]thiophene-2-carboxylic acid] | ≥ 5%
2 | CNc1c(C(=O)O)sc2ccc(C(F)(F)F)cc12 [Present compound 109, 3-(N-methylamino)-5-trifluoromethylbenzo[b]thiophene-2-carboxylic acid] | ≥ 5%
3 | O=C(O)c1sc2ccc(C(F)(F)F)cc2c1O [Present compound 111, 3-hydroxy-5-trifluoromethylbenzo[b]thiophene-2-carboxylic acid] | ≥ 5%
4 | CCOc1c(C(=O)O)sc2ccc(C(F)(F)F)cc12 [Present compound 113, 3-ethoxy-5-trifluoromethylbenzo[b]thiophene-2-carboxylic acid] | ≥ 5%
5 | O=C(O)c1sc2ccc(C(F)(F)F)cc2c1OCc1ccccc1 [Present compound 115, 3-benzyloxy-5-trifluoromethylbenzo[b]thiophene-2-carboxylic acid] | ≥ 5%

What follows are compounds tested on Nicotiana benthamiana (assay: Test Example 4: growth promotion under low-temperature stress by hydroponics of Nicotiana benthamiana (10 ppm)). Details: compound at 10 ppm, 7 days at 1.5±1.0° C. low-temperature stress, then 3 days at 22° C., 5 or greater = growth promotion effect, read-out: value of a relative leaf area (Equation (1), area of green leaf).
Assay type: in vivo
Protocol: Test Example 4. Test for Evaluating Growth Promotion Under Low-Temperature Stress by Hydroponics of Nicotiana benthamiana
as §1
as §2, with “the compounds 4, 5, 6, 8, 14, 17, 19, 22, 26, 45, 51, 53, 57, 59, 65, 69, 70, 75, 77, 79, 91, 97, 99, 101, and 110” for “the compounds 9, 10, 15, 16, 27 to 29, 31 to 37, 40, 44, 47, 48, 52, 55, 56, 58, 61, 63, 81, 87, 89, 92, 95, 98, 100, 102, 105, 108, 109, 111, 113, and 115”, “101, and 110 of the” for “113, and 115 of the”, “concentration of 10,000 ppm, was” for “concentration of 1,000 ppm, was”, “to the Murashige⋅Scoog medium of” for “to the Murashige-Scoog medium of”, “Wako Pure Chemical Industries, Ltd.),” for “Wako Pure Chemical. Industries, Ltd.),”, “concentration of 10 ppm.” for “concentration of 1 ppm.”
as §3, with “the […]” for “the 5 μL of the”, “concentration of 10 ppm was” for “concentration of 1 ppm was”, “at 22° C., under the” for “at 22° C. under the”, “and the seedling raised from” for “and the seedlings raised from”
as §4, §5
as §6, with “22° C.,” for “22° C. under the conditions of”, “of leafed” for “of leaf”, “compounds 4, 5, 6, 8, 14, 17, 19, 22, 26, 45, 51, 53, 57, 59, 65, […], 69, 70, 75, 77, 79, 91, 97, 99, 101,” for “compounds 9, 10, 15, 16, 27 to 29, 31 to 37, 40, 44, 47, 48, 52, 55, 56, 58, 61, 63, 81, 87, 89, 92, 95, 98, 100, 102, 105, 108, 109, 111, 113,”, “and 110” for “and 115”, “at 10” for “at 1”

Row | Compound | relative green leaf area at 10 ppm
6 | O=C(O)c1cc2cc(Cl)ccc2s1 [Present compound 6, 5-chlorobenzo[b]thiophene-2-carboxylic acid] | ≥ 5%
7 | O=C(O)c1cc2c(I)cccc2s1 [Present compound 14] | ≥ 5%
8 | O=C(O)c1cc2c([N+](=O)[O-])cccc2s1 [Present compound 17, 4-nitrobenzo[b]thiophene-2-carboxylic acid] | ≥ 5%
9 | O=C(O)c1cc2ccc([N+](=O)[O-])cc2s1 [Present compound 19, 6-nitrobenzo[b]thiophene-2-carboxylic acid] | ≥ 5%
10 | Cc1ccc2cc(C(=O)O)sc2c1 [Present compound 22] | ≥ 5%
11 | O=C(O)c1sc2ccccc2c1C(F)(F)F [Present compound 26, 3-(trifluoromethyl)benzo[b]thiophene-2-carboxylic acid] | ≥ 5%
12 | O=C(O)c1cc2cc(-c3cccnc3)ccc2s1 [Present compound 45, 5-(3-pyridyl)benzo[b]thiophene-2-carboxylic acid] | ≥ 5%
13 | O=C(O)c1ccc2sc(C(=O)O)cc2c1 [Present compound 53, benzo[b]thiophene-2,5-dicarboxylic acid] | ≥ 5%
14 | O=C(c1ccccc1)c1ccc2sc(C(=O)O)cc2c1 [Present compound 57, 5-benzoylbenzo[b]thiophene-2-carboxylic acid] | ≥ 5%
15 | NC(=O)c1ccc2sc(C(=O)O)cc2c1 [Present compound 59, 5-aminocarbonylbenzo[b]thiophene-2-carboxylic acid] | ≥ 5%
16 | O=C(Nc1ccc2sc(C(=O)O)cc2c1)c1ccccc1 [Present compound 65, 5-(benzoylamino)benzo[b]thiophene-2-carboxylic acid] | ≥ 5%
17 | CC(=O)Nc1c(C(=O)O)sc2ccccc12 [Present compound 69, 3-acetylamino-benzo[b]-thiophene-2-carboxylic acid] | ≥ 5%
18 | O=C(O)c1cc2cc(NC(=O)C(F)(F)F)ccc2s1 [Present compound 70, 5-(trifluoroacetylamino)benzo[b]thiophene-2-carboxylic acid] | ≥ 5%
19 | Cc1ccc(S(=O)(=O)Nc2ccc3sc(C(=O)O)cc3c2)cc1 [Present compound 75, 5-[(4-methylphenylsulfonyl)amino]benzo[b]thiophene-2-carboxylic acid] | ≥ 5%
20 | O=C(O)c1cc2cc(O)ccc2s1 [Present compound 77] | ≥ 5%
21 | O=C(O)c1cc2cccc(O)c2s1 [Present compound 79] | ≥ 5%
22 | O=C(O)c1cc2ccc(OCc3ccc(C(F)(F)F)cc3)cc2s1 [Present compound 91, 6-(4-trifluoromethylbenzyloxy)benzo[b]thiophene-2-carboxylic acid] | ≥ 5%
23 | CSc1ccc2sc(C(=O)O)cc2c1 [Present compound 97, 5-methylthiobenzo[b]thiophene-2-carboxylic acid] | ≥ 5%
24 | O=C(O)c1cc2cc([S+]([O-])C(F)(F)F)ccc2s1 (centres unmarked) [Present compound 99, 5-(trifluoromethylsulfinyl)benzo[b]thiophene-2-carboxylic acid] | ≥ 5%
25 | O=C(O)c1cc2cc(S(F)(F)(F)(F)F)ccc2s1 [Present compound 101, 5-pentafluorosulfanylbenzo[b]thiophene-2-carboxylic acid] | ≥ 5%
26 | CN(C)c1c(C(=O)O)sc2ccc(C(F)(F)F)cc12 [Present compound 110, 3-(N,N-dimethylamino)-5-trifluoromethylbenzo[b]thiophene-2-carboxylic acid] | ≥ 5%
